Patent US20090304797A1, “Process for the Preparation of Micronized Valsartan” (priority 2006, published 2009)

Assay: Particle size distribution
Format: physicochemical
Conditions: crystallized using ethyl acetate as taught in U.S. Pat. No. 5,399,578, after passing through 30 mesh sieve

In the case of `CCCCC(=O)N(Cc1ccc(-c2ccccc2-c2nnn[nH]2)cc1)[C@H](C(=O)O)C(C)C` [Valsartan, N-(1-Oxopentyl)-N-[[2′-(1H-tetrazol-5-yl)[1,1′-biphenyl]-4-yl]methyl]-L-valine], the “Particle size distribution d10” value is reported as 5.039 μ.

With `CCCCC(=O)N(Cc1ccc(-c2ccccc2-c2nnn[nH]2)cc1)[C@H](C(=O)O)C(C)C` [Valsartan, N-(1-Oxopentyl)-N-[[2′-(1H-tetrazol-5-yl)[1,1′-biphenyl]-4-yl]methyl]-L-valine] the “Particle size distribution d50” value was 77.29 μ.

For `CCCCC(=O)N(Cc1ccc(-c2ccccc2-c2nnn[nH]2)cc1)[C@H](C(=O)O)C(C)C` [Valsartan, N-(1-Oxopentyl)-N-[[2′-(1H-tetrazol-5-yl)[1,1′-biphenyl]-4-yl]methyl]-L-valine], the “Particle size distribution d90” value was 383.55 μ.

Same assay, conditions: solid obtained by the process of the example

With `CCCCC(=O)N(Cc1ccc(-c2ccccc2-c2nnn[nH]2)cc1)[C@H](C(=O)O)C(C)C` [Example 5 B, Valsartan] the “Particle size distribution d10” value was 0.71 μ.
In the case of `CCCCC(=O)N(Cc1ccc(-c2ccccc2-c2nnn[nH]2)cc1)[C@H](C(=O)O)C(C)C` [Example 3, Valsartan], the “Particle size distribution d10” value is reported as 1.5421 μ.
For `CCCCC(=O)N(Cc1ccc(-c2ccccc2-c2nnn[nH]2)cc1)[C@H](C(=O)O)C(C)C` [Example 5 A, Valsartan], the “Particle size distribution d10” value was 1.869 μ.
In the case of `CCCCC(=O)N(Cc1ccc(-c2ccccc2-c2nnn[nH]2)cc1)[C@H](C(=O)O)C(C)C` [Example 4, Valsartan], the “Particle size distribution d10” value is reported as 2.011 μ.
For `CCCCC(=O)N(Cc1ccc(-c2ccccc2-c2nnn[nH]2)cc1)[C@H](C(=O)O)C(C)C` [Example 1, Valsartan], the “Particle size distribution d10” value was 1.906 μ.
For `CCCCC(=O)N(Cc1ccc(-c2ccccc2-c2nnn[nH]2)cc1)[C@H](C(=O)O)C(C)C` [Example 2, Valsartan], the “Particle size distribution d10” value was 1.686 μ.

In the case of `CCCCC(=O)N(Cc1ccc(-c2ccccc2-c2nnn[nH]2)cc1)[C@H](C(=O)O)C(C)C` [Example 5 B, Valsartan], the “Particle size distribution d50” value is reported as 2.687 μ.
For `CCCCC(=O)N(Cc1ccc(-c2ccccc2-c2nnn[nH]2)cc1)[C@H](C(=O)O)C(C)C` [Example 3, Valsartan], the “Particle size distribution d50” value was 3.850 μ.
With `CCCCC(=O)N(Cc1ccc(-c2ccccc2-c2nnn[nH]2)cc1)[C@H](C(=O)O)C(C)C` [Example 5 A, Valsartan] the “Particle size distribution d50” value was 18.401 μ.
With `CCCCC(=O)N(Cc1ccc(-c2ccccc2-c2nnn[nH]2)cc1)[C@H](C(=O)O)C(C)C` [Example 4, Valsartan] the “Particle size distribution d50” value was 4.636 μ.
In the case of `CCCCC(=O)N(Cc1ccc(-c2ccccc2-c2nnn[nH]2)cc1)[C@H](C(=O)O)C(C)C` [Example 1, Valsartan], the “Particle size distribution d50” value is reported as 4.134 μ.
With `CCCCC(=O)N(Cc1ccc(-c2ccccc2-c2nnn[nH]2)cc1)[C@H](C(=O)O)C(C)C` [Example 2, Valsartan] the “Particle size distribution d50” value was 4.420 μ.

In the case of `CCCCC(=O)N(Cc1ccc(-c2ccccc2-c2nnn[nH]2)cc1)[C@H](C(=O)O)C(C)C` [Example 5 B, Valsartan], the “Particle size distribution d90” value is reported as 8.42 μ.
In the case of `CCCCC(=O)N(Cc1ccc(-c2ccccc2-c2nnn[nH]2)cc1)[C@H](C(=O)O)C(C)C` [Example 3, Valsartan], the “Particle size distribution d90” value is reported as 7.869 μ.
In the case of `CCCCC(=O)N(Cc1ccc(-c2ccccc2-c2nnn[nH]2)cc1)[C@H](C(=O)O)C(C)C` [Example 5 A, Valsartan], the “Particle size distribution d90” value is reported as 202 μ.
For `CCCCC(=O)N(Cc1ccc(-c2ccccc2-c2nnn[nH]2)cc1)[C@H](C(=O)O)C(C)C` [Example 4, Valsartan], the “Particle size distribution d90” value was 8.611 μ.
In the case of `CCCCC(=O)N(Cc1ccc(-c2ccccc2-c2nnn[nH]2)cc1)[C@H](C(=O)O)C(C)C` [Example 1, Valsartan], the “Particle size distribution d90” value is reported as 7.554 μ.
In the case of `CCCCC(=O)N(Cc1ccc(-c2ccccc2-c2nnn[nH]2)cc1)[C@H](C(=O)O)C(C)C` [Example 2, Valsartan], the “Particle size distribution d90” value is reported as 8.684 μ.
